In experiment [1] the test system is hedgehog-responsive Gli-Luc reporter-construct. Kind of experiment: Gli-Luc hedgehog pathway reporter assay in [10T1/2(s12)] cells. Type of experiment: cell-based, murine. The note with it: Table 1. How it is done: To measure the hedgehog agonist activity of compounds, we used [10T1/2(s12)] cells containing the hedgehog-responsive Gli-Luc reporter-construct. In each MTP (MicroTiter Plate; 96-well plate), 10,000-20,000 cells were plated per well, in full media (10% FBS). After about 24-48 hr, plates were switched to low-serum media (=0.5%. FBS). Subsequently, a test compound was added at 1-5 μM in the presence or absence of octyl-hedgehog (see below). After another 24 hr, the media from the MTPs was discarded and replaced with luciferase assay-mix, containing lysis-buffer with luciferase substrate. The plates were incubated at RT for about 15-30 min and read in a luminometer.
Plates were incubated for 48 hr before switching to low-serum. Compounds were screened at 1-2 μM in the presence of Hh protein (0.01 μg/ml; EC30=about 30% of max-induced activity).
Plates were incubated for 24 hr before switching to low-serum. Compounds were screened at 5 μM without adding Hh protein.
From Screen A, we identified hits identified in FIGS. 32 and 33. The 1,4-diaminocyclohexane subunit of the compounds of FIG. 32 which include this moiety have the two amino substituents disposed in a trans-relationship, e.g., both substituents equatorial on the cyclohexane subunit. These hits were confirmed in Screen B. The data shown in FIGS. 34a and 34b essentially involved dosing the two compounds in both assays (Gli-Luc & SV-Luc).
The data from the Gli-Luc assay is converted to percent activity where full activity with Hh protein is set at 100% (FIG. 35; Table 1). […] Furthermore, the compounds show a more striking induction in the presence of hedgehog (EC50=0.2-0.3 μM, ECmax=70-90% of max induced activity with Hh protein), indicating a synergy between the compounds and Hh protein, consistent with the compounds serving as agonists for the hedgehog pathway.
In general terms: Reporter assays use an easily measured gene product as a stand-in for the process of interest.

In experiment [2] the test system is HEPM cells with a Gli-Luc construct. Kind of experiment: Gli-Luc reporter in human embryonic palatal mesenchyme (HEPM) cells. The class given is cell-based. The source says: FIGS. 47A and B compare the activity of subject compounds O and R in mouse reporter cells (TM3 cells with a Gli-Luc reporter construct, as described above) and in human reporter cells (human embryonic palatal mesenchyme (HEPM) cells with a Gli-Luc construct).

The subject of experiment [3] is patched (ptc-lacZ β-galactosidase reporter). Kind of experiment: Ptc-lacZ reporter mice assay (X-gal staining of tissues). The settings on record: agonist 15 mg/kg/injection 4X/day + dipal-Shh 1 mg/kg/injection 2X/day, four days from first day after birth. Type of experiment: in vivo. How it is done: Mice with a β-galactosidase transgene (ptc-lacZ mice) under the regulatory control of the patched locus express the β-galactosidase protein in the same cells where the endogenous mouse patched gene is expressed. The β-galactosidase protein can thus be used as a faithful reporter of the expression of the endogenous patched gene.
Ptc-lacZ mice were divided into four treatment groups and were treated with the following compounds or combinations of compounds for four days, beginning on the first day after birth (dipal-Shh=dipalmitoylated Sonic hedgehog):
The vehicle for the agonist was 10% DMSO in PBS (pH 7.2). The agonist was injected from a 4.67 mM stock dissolved in the vehicle solution.
18 hours following the last injections, the mice were sacrificed and the following tissues were collected: skull, kidney, lung, scapula, skin and heart. All tissues were fixed in 0.2% glutaraldehyde, 5 mM EDTA (pH 8.0), 20 mM MgCl2, 100 mM Na2HPO4 for 30 minutes before staining in 1 mg/ml X-gal, 12.5 mM potassium ferrocyanide, 12.5 mM potassium ferricyanide, 2 mM MgCl2, 0.01% deoxycholate, 0.02% NP-40, and 100 mM Na2HPO4 for 30 hours. Tissues were judged for relative intensity and photographed.
FIG. 42: Ptc-lacZ mice were divided into two treatment groups and were treated with the following compounds for three days, beginning on the first day after birth:
The vehicle for the agonist was 10% DMSO in PBS (pH 7.2). The agonist was injected from a 1.0 mM stock dissolved in the vehicle solution.
Eighteen hours following the last injections, the mice were sacrificed and the forelimbs were collected and processed as described above.
In a third experiment, Ptc-lacZ mice were divided into five treatment groups and were treated with the following compounds for four days, beginning on the first day after birth:
The vehicle for the agonist was 10% DMSO in PBS (pH 7.2). The agonist was injected from stocks of 0.3, 0.1 and 0.03 mM dissolved in the vehicle solution.

The test system of experiment [4] is cerebellar neuron precursors. Nature of the experiment: Cerebellar neuron precursor proliferation (3H-thymidine incorporation). Type of experiment: cell-based, rat. The note with it: for stimulation of 3H-thymidine incorporation: absence of Hh protein treatment. How it is done: In order to test the efficacy of Hedgehog signaling agonists, the ability of the agonists to stimulate the proliferation of cerebellar neuron precursors was determined. Cerebellar granule neuron precursors are known to respond to Hh protein by proliferating. To test the agonists, cerebellar neurons were dissected out of postnatal (one week) rat brains, and placed into primary cell culture. Treatment agents were added once, on the first day of culture (0 DIV). Cells were left in culture until 2 DIV, when 3H-thymidine was added for 5 hours; the amount of incorporation by the cells of this 3H-thymidine provides a measure of the level of proliferation of the cells. Cells were then lysed, and the incorporation of 3H-thymidine was determined. The positive control was Hh protein, at 1.0 μg/ml final concentration. Hh protein alone caused approximately a 20-fold increase in 3H-thymidine incorporation, consistent with the known ability of Shh to stimulate proliferation of these cells. Non-Hh-protein-stimulated cells, including cells treated with control vehicle (DMSO), had very low levels of proliferation. […] At 5.0 μM, the p-cyanophenyl compound B caused 10.2-fold induction of 3H-thymidine incorporation. […] At 1.0, 0.3, or 0.1 μM, D caused 16-, 17-, or 13-fold induction, respectively, of 3H thymidine incorporation into the cells.

Experiment [5] relates to Gli-1. Kind of experiment: Quantitative RT-PCR (TaqMan) of Gli-1 transcript in C3H 10T1/2 cells. The settings on record: compound concentration 8 μM. Type of experiment: cell-based, Murine. How it is done:
(§1) The compounds of FIGS. 32 and 33 were tested for their ability to activate transcription of two well-studied targets of the Hedgehog pathway: the transcription factor Gli-1, and the putative Hedgehog receptor component Ptc-1.
(§2) Murine C3H 10T1/2 cells were seeded at approximately 200,000 cells per well in a 24-well plate in complete medium (10% FBS). After 24 hr, medium was removed and replaced with “starvation” medium (0.5% FBS) containing dilutions of compound or Hh protein. After 16-18 hr, total RNA was prepared using TriZol (Life Technologies, inc.).
(§3) One-microgram aliquots of total RNA were used to prepare random hexamer-primed cDNA with […] Reverse transcriptase (Life Technologies, Inc.).
(§4) To measure the relative levels of Gli-1 and Ptc-1 transcripts, TaqMan assays (PE Biosystems) were performed with an ABI Prism 7700 Sequence Detection System. As an internal control, GAPDH transcript levels were simultaneously measured in each reaction. Data were analyzed using Sequence Detector v 1.6.3 (Perkin Elmer).

Experiment [6] deals with ptc-1 (d11) lacZ kidney explants. Kind of experiment: Kidney branching assay (ptc-1 lacZ kidney explants). The class given is cell-based, mouse. The note with it: 5 μM, 48 hrs. How it is done: E13.5 old ptc-1 (d11) lacZ […] were harvested and transgenic embryos identified by lacZ detection using tails. Explants were assembled on 1 μm polycarbonate filters (Costar) placed on top of plastic grids (histology embedding chamber) and placed in standard 12-well tissue culture plates filled with kidney explant culture medium (DMEM based, additives optimized for the culture of mouse […]) for 48 hrs, fixed in lacZ fixative, rinsed and stained for lacZ O/N at 37° C.

Experiment [7] has as its system Ptc-1. Kind of experiment: Quantitative RT-PCR (TaqMan) of Ptc-1 transcript in C3H 10T1/2 cells. The class given is cell-based, Murine. The settings on record: compound concentration 8 μM. How it is done: as §1, §2, §3, §4
On the technique in general: In qPCR the cycle at which signal appears reflects the starting amount.

Experiment [8] relates to ptc-1 (d11) lacZ lungs. Nature of the experiment: Lung branching assay (ptc-1 lacZ lung explants). The settings on record: 5 μM, 48 hrs. Type of experiment: cell-based, mouse. How it is done: E12.5 old ptc-1 (d11) lacZ lungs were harvested and transgenic embryos identified by lacZ detection using tails. Explants were assembled on 1 μm polycarbonate filters (Costar) placed on top of plastic grids (histology embedding chamber) and placed in standard 12-well tissue culture plates filled with lung explant culture medium (DMEM based, additives optimized for the culture of mouse lungs) for 48 hrs, fixed in lacZ fixative, rinsed and stained for lacZ O/N at 37° C.

Experiment [9] deals with ptc-lacZ skin punches. Kind of experiment: Skin explants from ptc-lacZ pups (X-Gal stain). The class given is cell-based, mouse. The note with it: cultured 6 days. How it is done: Skin from ptc-lacZ E17.5 pups was excised with a 2 mm skin punch. Those skin punches were then cultured for 6 days in control media, or media including either agonist B or D or Hh protein, or media including both an agonist and Hh protein. The explants were then stained with X-Gal stain.

SMILES strings stand for the structures.

The EC50 is the concentration giving half of the maximal effect. On to `CNC1CCC(N(Cc2ccc(-c3cccnc3)o2)C(=O)c2sc3ccccc3c2Cl)CC1` (centres unmarked) [R], for which the 50% effective concentration (EC50) in experiment [1] was less than 1 µM. In addition, the “activation of Gli-Luc reporter cell line” value in [2] is given as “activation of the reporter cell line”.

On to `CN[C@H]1CC[C@H](N(Cc2cccc(C#N)c2)C(=O)c2sc3ccccc3c2Cl)CC1` [Z′], for which the EC50 in experiment [1] was less than 10 µM.

For `CN[C@H]1CC[C@H](N(Cc2ccc(OC)c(-c3ccc(C#N)cc3)c2)C(=O)c2sc3sccc3c2Cl)CC1` [L′′′], the EC50 in [1] is less than 5 µM.

On to `COc1ccc(CN(C(=O)c2sc3ccccc3c2Cl)C2CCC(N)CC2)cc1-c1ccc(C#N)cc1` (centres unmarked) [B], for which the EC50 in experiment [1] was less than 10 µM. In addition, the “upregulation of hedgehog pathway (β-galactosidase staining)” value in [3] is “clearly capable of upregulating the hedgehog pathway in vivo”. Besides, the “induction of 3H-thymidine incorporation” value in experiment [4] (5.0 μM, absence of Hh protein) is listed as 10.2 fold. For the same molecule, in [4], the “stimulation of 3H-thymidine incorporation” value is on record as “significantly stimulate 3H-thymidine incorporation”. Further, the “induction of Gli-1 relative to that obtained with the optimal concentration of Hh protein” value in experiment [5] is on record as “approximately 60%”. In [6], the “LacZ reporter gene expression in kidney explants” value was “significantly increased reporter gene expression and expansion of the expression domain of the transgene”. Also, the “induction of Ptc-1 relative to that obtained with the optimal concentration of Hh protein” value in [7] is recorded as “approximately 60%”. Further, the “LacZ reporter gene expression in lung explants” value in experiment [8] was “significantly increased reporter gene expression and expansion of the expression domain of the transgene”. The “X-Gal staining of skin explants” value in [9] (agonist alone) was “greater staining than culturing with a low dose of Hh protein alone”; in [9] (agonist and a low dose of Hh protein) it was “staining similar to that of a substantially higher dose of Hh protein”.

Take `COc1ccc(CN(C(=O)c2sc3ccccc3c2C)C2CCC(N)CC2)cc1-c1ccc(C#N)cc1` (centres unmarked) [Compound E]: the EC50 in experiment [1] was less than 10 µM.

For `CN[C@H]1CC[C@H](N(Cc2cc(-c3ccc(C#N)cc3)cs2)C(=O)c2sc3ccccc3c2Cl)CC1` [G′′], the EC50 in experiment [1] was less than 0.1 µM.

Turning to `CN[C@H]1CC[C@H](N(Cc2cccc(-c3nccs3)c2)C(=O)c2sc3ccccc3c2Cl)CC1` [B′′], in [1], the EC50 is less than 10 µM.

For `COc1ccc(CN(C(=O)c2sc3ccccc3c2Cl)C2CCC(N)CC2)cc1-c1ncccn1` (centres unmarked) [I], in [1], the EC50 was greater than 10 µM.

For `COc1ccc(CN(C(=O)c2sc3ccccc3c2Cl)[C@H]2CC[C@H](N(C)C)CC2)cc1-c1ccc(C#N)cc1` [G′], the EC50 in experiment [1] was less than 10 µM.

As to `CNC1CCC(N(Cc2ccc(OC)c(I)c2)C(=O)c2sc3ccccc3c2Cl)CC1` (centres unmarked) [U], the EC50 in experiment [1] is less than 10 µM.

`CN[C@H]1CC[C@H](N(Cc2ccc(OC)c(-c3ccc(C#N)cc3)c2)C(=O)c2sc3c(F)cc(F)cc3c2Cl)CC1` [F′′′]: in experiment [1], the EC50 was less than 0.05 µM.

As to `CN[C@H]1CC[C@H](N(Cc2cccc(-c3cccnc3)n2)C(=O)c2sc3ccccc3c2Cl)CC1` [N′′], the 50% effective concentration (EC50) in [1] was less than 1 µM.

For the molecule `CN[C@H]1CC[C@H](N(Cc2ccc(OC)c(-c3ccc(C#N)cc3)c2)C(=O)c2sc3cc(F)ccc3c2Cl)CC1` [J′], the EC50 in [1] was less than 1 µM.

On to `COc1ccc(CN(C(=O)c2sc3ccccc3c2Cl)C2CCC(N)CC2)cc1-c1cccc([N+](=O)[O-])c1` (centres unmarked) [A], for which the “stimulation of 3H-thymidine incorporation” value in experiment [4] was “significantly stimulate 3H-thymidine incorporation”. The “induction of Gli-1 relative to that obtained with the optimal concentration of Hh protein” value in experiment [5] was roughly 40%. Besides, in experiment [7], the “induction of Ptc-1 relative to that obtained with the optimal concentration of Hh protein” value is roughly 40%.

(Values after patent publication US8129425B2, “Small organic molecule regulators of cell proliferation” (Curis, Inc., priority 2000, dated 2012).)
